Type in all cases: cell-based
Series [1] is described as follows: in vitro. The following applies: human. The protocol: H1-HeLa cell viability was measured using the CellTiter-Glo® Luminescent Cell Viability Assay kit (Promega, Cat #G7573) according to the manufacturer's protocol. H1-HeLa cells were maintained in Dulbecco's Modified Eagle's Medium with high glucose (Gibco, Cat #: 11995073) supplemented with 10% FBS (HyClone, Cat #: SH303396.03), 100 units/mL penicillin and 100 µg/mL streptomycin (Gibco, Cat #: 15140122). One day before compound treatment, H1-HeLa cells were seeded at […] into 96-well plates (Corning, Cat #3904) in Opti-MEM (Gibco, Cat #: 31985070) supplemented with 2% FBS, and were incubated at 37° C. in a 100% humid atmosphere containing 5% (v/v) CO2. After overnight incubation, the cells were treated with three-fold serial dilutions of the compound. At 96 hours post treatment, CellTiter-Glo reagents were added into each well and luminescence signals were recorded by an EnVision plate reader. The relative cell viability was calculated by normalizing the absorbance of the compound-treated groups to that of the DMSO-treated groups (set as 100% viability) and 10 μM puromycin treated groups (set as 0% viability). The CC50 (compound concentration for reducing 50% of cell viability) was calculated using a nonlinear regression model (four parameters).

For series [2], the system named is Recombinant Respiratory Syncytial virus strain A2 containing the firefly luciferase reporter (RSV-Fluc) in NHBE cells. Put plainly: RSV NHBE FLuc EC50 (Example I). The following applies: human respiratory syncytial virus, 72 h, read-out: RSV NHBE FLuc EC50 (nM) (per Ex. I). In a few lines:
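NHBE primary cells (passage 2-4) treated with threefold compound dilutions and infected with RSV A2 firefly-luciferase reporter virus at MOI 0.1; 3 days at 37° C, 5% CO2. ONE-Glo luminescence normalized to uninfected and infected DMSO controls; EC50 from non-linear regression, duplicates with two technical repeats.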

Series [3] relates to dengue virus type 2 in Huh7 hepatoblastoma cells. Put plainly: Dengue Virus-2 Huh-7 EC50 (Example W). The settings on record: MOI of 0.07, CPE, neutral red dye, read-out: Dengue Virus-2 Huh-7 EC50 (nM) (per Ex. W). The protocol:
(§1) Huh7 hepatoblastoma cells were seeded onto 96-well plates and incubated at 37° C. with 5% CO2 overnight. The plates were seeded at a cell concentration that will yield >70% confluent monolayers in each well after overnight incubation. Eight 3-fold serial dilutions of compounds were diluted in test media (MEM supplemented with 2% FBS and 50 μg/mL gentamicin). The highest test compound concentration was 50 μg/mL. 100 μL of each concentration was added to 5 test wells on the 96-well plate. Of these 5 test wells, 3 wells of each dilution were infected with dengue virus type 2, diluted in test media (approximately 2000 CCID50 per well for an MOI of 0.07). Test medium (100 μL) with no virus was added to 2 wells to represent the uninfected cytotoxicity controls. Six additional infected wells received 100 μL media alone as untreated virus controls. Further, 100 μL of media alone was added to 6 uninfected wells to serve as uninfected, untreated controls. Cultures were incubated at 37° C.+5% CO2 until >80% CPE is observed. After cytopathic effect (CPE) is observed microscopically, 0.011% neutral red dye was added for approximately 2 hours. The neutral red dye was removed and wells were rinsed once with PBS to remove residual, unincorporated dye. A 50:50 Sorensen citrate buffer/ethanol solution was added and incubated at room temperature for >30 minutes with agitation, followed by measurement of neutral red dye using a spectrophotometer at 540 nm. The resulting optical density measurement was converted to percent signal of the infected, untreated cell control normalizing to virus controls. EC50 and CC50 values were determined by linear regression analysis.

A short description of series [4]: in vitro. The following applies: human. As for the experimental part: as §1
This is another data set of the same source.

What is called CC50 is the concentration giving 50% cytotoxicity. What is called EC50 is the concentration giving half of the maximal effect.

Take `CCCCCCCCCCCCCCCCCCOC[C@H](COP(=O)(O)OC[C@@]1(C#N)O[C@@H](c2ccc3c(N)ncnn23)[C@H](O)[C@@H]1O)OCc1cc(F)cc(C#N)c1` [Compound 1, ((2R,3S,4R,5S)-5-(4-aminopyrrolo[2,1-f][1,2,4]triazin-7-yl)-2-cyano-3,4-dihydroxytetrahydrofuran-2-yl)methyl ((R)-2-((3-cyano-5-fluorobenzyl)oxy)-3-(octadecyloxy)propyl) hydrogen phosphate]: the CC50 at 96 h in “in vitro [1]” is 3.62 µM. Besides, the concentration giving a half-maximal response (EC50) is 104 nM in series [2] and 9700 nM in series [3]. For the same compound, the midpoint of cytotoxicity in “in vitro [4]”, the CC50, lay at 18 µM.

Take `CCCCCCCCCCCCCCCCCCOC[C@H](COP(=O)(O)OC[C@@]1(C#N)O[C@@H](c2ccc3c(N)ncnn23)[C@H](O)[C@@H]1O)OCc1ccc(C#N)c(Cl)c1` [Compound 7, ((2R,3S,4R,5S)-5-(4-aminopyrrolo[2,1-f][1,2,4]triazin-7-yl)-2-cyano-3,4-dihydroxytetrahydrofuran-2-yl)methyl ((R)-2-((3-chloro-4-cyanobenzyl)oxy)-3-(octadecyloxy)propyl) hydrogen phosphate]: in the series “in vitro [1]”, the midpoint of cytotoxicity, the CC50 at 96 h, lay at 3.88 µM. The 50% effective concentration (EC50) in series [2] was 113 nM; in series [3], 8700 nM. This compound displayed a CC50 in “in vitro [4]” of 19 µM.

`CCCCCCCCCCCCCCCCCCOC[C@H](COP(=O)(O)OC[C@@]1(C#N)O[C@@H](c2ccc3c(N)ncnn23)[C@H](O)[C@@H]1O)Oc1ccc(C#N)c(OC(C)C)c1` [Compound 23, ((2R,3S,4R,5S)-5-(4-aminopyrrolo[2,1-f][1,2,4]triazin-7-yl)-2-cyano-3,4-dihydroxytetrahydrofuran-2-yl)methyl ((R)-2-(4-cyano-3-isopropoxyphenoxy)-3-(octadecyloxy)propyl) hydrogen phosphate]: the 50% cytotoxic concentration (CC50) at 96 h in “in vitro [1]” came out at 10.8 µM. Besides, the concentration for a half-maximal effect (EC50) in series [2] was 16 nM; in series [3], 8600 nM. Also, it took 26 µM to reach half-maximal cytotoxicity in the series “in vitro [4]” (CC50).

In the case of `CCCCCCCCCCCCCCCCCCC[C@H](COP(=O)(O)OC[C@@]1(C#N)O[C@@H](c2ccc3c(N)ncnn23)[C@H](O)[C@@H]1O)OCc1ccc(-n2cncn2)c(C#N)c1` [Compound 30, ((2R,3S,4R)-5-(4-aminopyrrolo[2,1-f][1,2,4]triazin-7-yl)-2-cyano-3,4-dihydroxytetrahydrofuran-2-yl)methyl ((R)-2-((3-cyano-4-(1H-1,2,4-triazol-1-yl)benzyl)oxy)henicosyl) hydrogen phosphate], in “in vitro [1]”, half-maximal cytotoxicity (CC50 at 96 h) was put at 4.96 µM. Further, the EC50 in series [3] was 1200 nM. This compound also had a 50% cytotoxic concentration (CC50) in “in vitro [4]” of 5.9 µM.

The compound `CCCCCCCCCCCCCCCCCCCC[C@H](COP(=O)(O)OC[C@@]1(C#N)O[C@@H](c2ccc3c(N)ncnn23)[C@H](O)[C@@H]1O)OCc1cc(F)cc(C#N)c1` [Compound 34, ((2R,3S,4R)-5-(4-aminopyrrolo[2,1-f][1,2,4]triazin-7-yl)-2-cyano-3,4-dihydroxytetrahydrofuran-2-yl)methyl ((R)-2-((3-cyano-5-fluorobenzyl)oxy)docosyl) hydrogen phosphate] registered a CC50 at 96 h in “in vitro [1]” of 4.69 µM. In addition, the EC50 in series [3] was 15000 nM. In addition, the CC50 in the series “in vitro [4]” stood at 15 µM.

In turn, `CCCCCCCCCCCCCCCCCCOC[C@H](COP(=O)(O)OC[C@@]1(C#N)O[C@@H](c2ccc3c(N)ncnn23)[C@H](O)[C@@H]1O)OCc1cccc(C#N)n1` [Compound 68, ((2R,3S,4R)-5-(4-aminopyrrolo[2,1-f][1,2,4]triazin-7-yl)-2-cyano-3,4-dihydroxytetrahydrofuran-2-yl)methyl ((R)-2-((6-cyanopyridin-2-yl)methoxy)-3-(octadecyloxy)propyl) hydrogen phosphate] came in with a cytotoxic concentration (CC50) at 96 h in “in vitro [1]” of 8.71 µM. Besides, the EC50 in series [2] amounted to 36 nM.

In the series “in vitro [1]”, `CCCCCCCCCCCCCCCCCCOC[C@@H](COP(=O)(O)OC[C@@]1(C#N)O[C@@H](c2ccc3c(N)ncnn23)[C@H](O)[C@@H]1O)Oc1ccc(C#N)nc1` [Compound 72, ((2R,3S,4R,5S)-5-(4-aminopyrrolo[2,1-f][1,2,4]triazin-7-yl)-2-cyano-3,4-dihydroxytetrahydrofuran-2-yl)methyl ((S)-2-((6-cyanopyridin-3-yl)oxy)-3-(octadecyloxy)propyl) hydrogen phosphate] registered a half-maximal cytotoxic concentration (CC50) at 96 h of 5.1 µM. Further, the EC50 in series [3] was 2400 nM. It took 17 µM to reach half-maximal cytotoxicity in “in vitro [4]” (CC50).

On to `CCCCCCCCCCCCCCCCC[C@H](COP(=O)(O)OC[C@@]1(C#N)O[C@@H](c2ccc3c(N)ncnn23)[C@H](O)[C@@H]1O)OCc1cc(Cl)cc(C#N)c1` [Compound 76, ((2R,3S,4R)-5-(4-aminopyrrolo[2,1-f][1,2,4]triazin-7-yl)-2-cyano-3,4-dihydroxytetrahydrofuran-2-yl)methyl ((R)-2-((3-chloro-5-cyanobenzyl)oxy)nonadecyl) hydrogen phosphate], for which it took 6.39 µM to reach half-maximal cytotoxicity in “in vitro [1]” (CC50 at 96 h).

In the series “in vitro [1]”, `CCCCCCCCCCCCCCCC[C@@H](COP(=O)(O)OC[C@@]1(C#N)O[C@@H](c2ccc3c(N)ncnn23)[C@H](O)[C@@H]1O)OCc1cc(F)cc(C#N)c1` [Compound 79, ((2R,3S,4R,5S)-5-(4-aminopyrrolo[2,1-f][1,2,4]triazin-7-yl)-2-cyano-3,4-dihydroxytetrahydrofuran-2-yl)methyl ((S)-2-((3-cyano-5-fluorobenzyl)oxy)octadecyl) hydrogen phosphate] showed a CC50 at 96 h of 6.74 µM.

`CCCCCCCCCCCCCCC[C@H](COP(=O)(O)OC[C@@]1(C#N)O[C@@H](c2ccc3c(N)ncnn23)[C@H](O)[C@@H]1O)OCc1cc(F)cc(C#N)c1` [Compound 80, ((2R,3S,4R,5S)-5-(4-aminopyrrolo[2,1-f][1,2,4]triazin-7-yl)-2-cyano-3,4-dihydroxytetrahydrofuran-2-yl)methyl ((R)-2-((3-cyano-5-fluorobenzyl)oxy)heptadecyl) hydrogen phosphate] registered a half-maximal cytotoxic concentration (CC50) at 96 h in the series “in vitro [1]” of 7.08 µM.

For the compound `CCCCCCCCCCCCCCCCCC[C@H](COP(=O)(O)OC[C@@]1(C#N)O[C@@H](c2ccc3c(N)ncnn23)[C@H](O)[C@@H]1O)OCc1cc(Cl)cc(C#N)c1` [Compound 81, ((2R,3S,4R,5S)-5-(4-aminopyrrolo[2,1-f][1,2,4]triazin-7-yl)-2-cyano-3,4-dihydroxytetrahydrofuran-2-yl)methyl ((R)-2-((3-chloro-5-cyanobenzyl)oxy)icosyl) hydrogen phosphate], in “in vitro [1]”, half-maximal cytotoxicity (CC50 at 96 h) was put at 4.52 µM. This CC50 at 96 h is about 1.6-fold lower than that of the compound before.

Regarding `CCCCCCCCCCCCCCCCCCC[C@H](COP(=O)(O)OC[C@@]1(C#N)O[C@@H](c2ccc3c(N)ncnn23)[C@H](O)[C@@H]1O)OCc1cc(Cl)cc(C#N)c1` [Compound 82, ((2R,3S,4R,5S)-5-(4-aminopyrrolo[2,1-f][1,2,4]triazin-7-yl)-2-cyano-3,4-dihydroxytetrahydrofuran-2-yl)methyl ((R)-2-((3-chloro-5-cyanobenzyl)oxy)henicosyl) hydrogen phosphate], in “in vitro [1]”, it took 4.03 µM to reach half-maximal cytotoxicity (CC50 at 96 h).

Consider `CCCCCCCCCCCCCCCCCC[C@H](COP(=O)(O)OC[C@@]1(C#N)O[C@@H](c2ccc3c(N)ncnn23)[C@H](O)[C@@H]1O)OCc1cc(F)cc(C#N)c1` [Compound 84, ((2R,3S,4R,5S)-5-(4-aminopyrrolo[2,1-f][1,2,4]triazin-7-yl)-2-cyano-3,4-dihydroxytetrahydrofuran-2-yl)methyl ((R)-2-((3-cyano-5-fluorobenzyl)oxy)icosyl) hydrogen phosphate], for which the CC50 at 96 h in the series “in vitro [1]” is 1.82 µM. This CC50 at 96 h is about 2.2-fold lower than that of the compound before.

Turning to `CCCCCCCCCCCCCCCCOC[C@@H](COP(=O)(O)OC[C@@]1(C#N)O[C@@H](c2ccc3c(N)ncnn23)[C@H](O)[C@@H]1O)OCc1cc(F)cc(C#N)c1` [Compound 88, ((2R,3S,4R,5S)-5-(4-aminopyrrolo[2,1-f][1,2,4]triazin-7-yl)-2-cyano-3,4-dihydroxytetrahydrofuran-2-yl)methyl ((S)-2-((3-cyano-5-fluorobenzyl)oxy)-3-(hexadecyloxy)propyl) hydrogen phosphate], in the series “in vitro [1]”, the CC50 at 96 h is 2.21 µM.

Source of the values: US20250034182A1, “PHOSPHOLIPID COMPOUNDS AND METHODS OF MAKING AND USING THE SAME” (priority 2021, published 2025).
